Data reported in PubChem BioAssay AID504313 (Emory University Molecular Libraries Screening Center, 2011).
The source made the active and inactive calls. How the calls were made is not given here.

What follows are compounds tested against X-box-binding protein 1 (Homo sapiens) (UniProt P17861) (assay: inhibitors of XBP1 reporter signal, dose response, counter-screen, cell-based (AID 504313;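 further: CHO cells carrying an XBP1 reporter stimulated with tunicamycin; potency is for inhibition of the tunicamycin-induced reporter signal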)). Settings: XBP1 reporter cell assay, percent of control.

Structure (SMILES)	IC50
Cc1ccc2nc(-c3cc(-c4ccccc4)no3)cn2c1	> 10 µM (inactive)
CC(C)(C)c1nnc(N/N=C/c2cc(Br)ccc2O)n(N)c1=O	6.02 µM
O=C1NC(=S)S/C1=C\C=C\c1ccc([N+](=O)[O-])o1	inactive
Cc1ccccc1NC(=O)/C=C/c1ccc([N+](=O)[O-])s1	inactive
Cc1ccc(-n2ncc(Br)c(Br)c2=O)cc1	inactive
CCOC(=O)C1=C(C)NC(C)=C(C(=O)OCC)C1/C=C/c1ccccc1	inactive
O=c1c(Cl)c(Cl)cnn1-c1ccccc1	inactive
O=C(/C=C/Sc1ncn[nH]1)c1ccc(Cl)cc1	inactive
CCc1ccc(-c2nc(CSCC(=O)NCc3ccco3)c(C)o2)cc1	< 0.16 µM
Cc1nc(SCC(=O)Nc2cc(C)on2)c2c3c(sc2n1)CCCC3	> 10 µM (inactive)
COc1ccc(/C=C2/SC(=S)N(CCCC(=O)Nc3ccc(O)cc3)C2=O)cc1	0.18 µM
Cn1cnc([N+](=O)[O-])c1S(=O)(=O)c1ccc(Cl)cc1	inactive
C[C@H](NC(=O)c1nc[nH]c1C(=O)N[C@@H](Cc1ccccc1)C(=O)OC(C)(C)C)C(=O)OC(C)(C)C	inactive
Cc1cccc(N2CCN(C(=O)CS(=O)(=O)Cc3nc(-c4ccccc4F)oc3C)CC2C)c1 (centres undefined)	> 10 µM (inactive)
Cc1ccc(N2C(=O)NC(=O)/C(=C\C=C\c3ccco3)C2=O)cc1C	> 10 µM (inactive)
CCCN1C=CC(=C2C(=O)c3ccccc3C2=O)C=C1	inactive
Cc1cc(C)n(-c2nc(N(c3ccccc3)c3ccccc3)nc(-n3nc(C)cc3C)n2)n1	inactive
CC(C)(C)c1ccc(CN2N=Nc3ccccc3S2(=O)=O)cc1	inactive
NC(=S)n1[nH]c(-c2ccc([N+](=O)[O-])cc2)c(N=Nc2cccc([N+](=O)[O-])c2)c1=O	inactive
Cc1ccc(Nc2nc(N)c([N+](=O)[O-])c(N3CCC(C)CC3)n2)cc1C	inactive

Structure (SMILES)	IC50
O=c1[nH]c(NNC(=S)NC2CCCCC2)nc2c1C1(CCCC1)Cc1ccccc1-2	> 10 µM (inactive)
Cc1ccc(Cl)cc1NC1=C/C(=N\S(=O)(=O)c2cccs2)c2ccccc2C1=O	inactive
Cc1ccc(OCC(=O)N2N=C(C(F)(F)F)CC2(O)C(C)(C)C)cc1C (centres undefined)	inactive
Cc1nc(SCC(=O)Nc2ccc(C)c(F)c2)c2oc3ccccc3c2n1	> 10 µM (inactive)
CCN1/C(=C/C(C)=C/c2sc3ccccc3[n+]2CC)Sc2ccccc21	> 10 µM (inactive)
CN(CCCC[C@H](CNCc1ccc(-c2ccccc2)cc1)N1C[C@H](c2ccccc2)N(CCc2ccc(Cl)c(Cl)c2)C(=O)C1=O)Cc1ccc(-c2ccccc2)cc1	inactive
CCN1/C(=C\C=C\C2=[N+](CC)c3ccccc3C2(C)C)C(C)(C)c2ccccc21	< 0.16 µM
CCOC(=O)C1=C(c2ccccc2)O/C(=C(/C#N)C(F)(F)F)S1	> 10 µM (inactive)
O=C1c2ccc3c4c(ccc(c24)C(=O)N1c1cccc(O)c1)C(=O)N(c1cccc(O)c1)C3=O	inactive
Cc1cccc(C)c1N1CCN(c2ccc3nnc(C(F)(F)F)n3n2)CC1	> 10 µM (inactive)
COc1ccc(NC(=O)c2cc3cccc(OC)c3oc2=Nc2ccc(C(=O)O)cc2)cc1OC	inactive
O=C(Nc1ccc([N+](=O)[O-])cc1)Nc1ccc(OC(F)F)c(Cl)c1	inactive
Cc1cccc(/C=C/C(=O)c2cc(Br)ccc(=O)c2O)c1	> 10 µM (inactive)
CCc1ccc(OCc2n[nH]c(=S)n2C(C)CCCC(C)C)cc1 (centres undefined)	inactive
C=C(C)COc1ccc(-c2[nH]ncc2Oc2ccccc2OCC)c(O)c1	inactive
Cn1c2ccccc2c(=O)c2c(=O)n(C3CCCCCC3)c(C3CCCCC3)nc21	> 10 µM (inactive)
C=CCc1cccc(/C=N/NC(=O)CCCNc2ccc(C)cc2)c1O	inactive
O=C(NNc1ccccc1Br)C(O)(c1cccc(C(F)(F)F)c1)c1cccc(C(F)(F)F)c1	inactive
CN1C2CCC1/C(=C/c1ccccn1)C(=O)/C2=C\c1ccccn1	0.54 µM
